The source of these data is ChEMBL document CHEMBL1152560, “Substituted 2-arylbenzothiazoles as kinase inhibitors: hit-to-lead optimization” (Bioorg Med Chem, 2009).

The target in assay [1] is T1, Ephrin type-A receptor 1 (Homo sapiens) (UniProt P21709).
T1 sequence (whole entry): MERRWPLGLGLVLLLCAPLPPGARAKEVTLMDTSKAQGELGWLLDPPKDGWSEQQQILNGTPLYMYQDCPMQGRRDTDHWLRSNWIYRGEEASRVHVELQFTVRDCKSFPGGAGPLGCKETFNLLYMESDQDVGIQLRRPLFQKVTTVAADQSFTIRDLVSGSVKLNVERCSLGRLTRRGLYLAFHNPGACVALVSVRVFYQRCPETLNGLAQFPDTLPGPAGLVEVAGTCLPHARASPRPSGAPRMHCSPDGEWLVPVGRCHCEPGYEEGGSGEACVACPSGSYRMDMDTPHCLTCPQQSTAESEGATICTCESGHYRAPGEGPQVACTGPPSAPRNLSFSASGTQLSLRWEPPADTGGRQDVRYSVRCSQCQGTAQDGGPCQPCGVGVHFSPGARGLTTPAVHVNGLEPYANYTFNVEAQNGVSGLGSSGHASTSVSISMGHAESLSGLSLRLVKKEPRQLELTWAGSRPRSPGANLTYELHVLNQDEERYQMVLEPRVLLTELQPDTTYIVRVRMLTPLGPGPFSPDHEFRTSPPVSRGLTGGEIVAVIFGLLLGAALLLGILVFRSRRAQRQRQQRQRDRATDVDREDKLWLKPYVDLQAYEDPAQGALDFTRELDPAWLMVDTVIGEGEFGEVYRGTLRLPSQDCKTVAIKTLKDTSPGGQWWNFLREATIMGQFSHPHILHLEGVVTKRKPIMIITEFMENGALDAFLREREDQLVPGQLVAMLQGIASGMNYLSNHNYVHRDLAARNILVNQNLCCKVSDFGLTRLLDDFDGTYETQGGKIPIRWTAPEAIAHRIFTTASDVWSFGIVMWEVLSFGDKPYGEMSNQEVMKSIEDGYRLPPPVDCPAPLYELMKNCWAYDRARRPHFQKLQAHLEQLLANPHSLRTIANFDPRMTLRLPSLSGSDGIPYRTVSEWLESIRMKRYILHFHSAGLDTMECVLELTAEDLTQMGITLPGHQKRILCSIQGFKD
The experiment in a line: Residual activity of EPHA1 at 0.1 uM by microplate scintillation counting.

Assay [2] concerns the target T2, Eukaryotic elongation factor 2 kinase (Homo sapiens) (UniProt O00418).
T2 sequence (whole entry): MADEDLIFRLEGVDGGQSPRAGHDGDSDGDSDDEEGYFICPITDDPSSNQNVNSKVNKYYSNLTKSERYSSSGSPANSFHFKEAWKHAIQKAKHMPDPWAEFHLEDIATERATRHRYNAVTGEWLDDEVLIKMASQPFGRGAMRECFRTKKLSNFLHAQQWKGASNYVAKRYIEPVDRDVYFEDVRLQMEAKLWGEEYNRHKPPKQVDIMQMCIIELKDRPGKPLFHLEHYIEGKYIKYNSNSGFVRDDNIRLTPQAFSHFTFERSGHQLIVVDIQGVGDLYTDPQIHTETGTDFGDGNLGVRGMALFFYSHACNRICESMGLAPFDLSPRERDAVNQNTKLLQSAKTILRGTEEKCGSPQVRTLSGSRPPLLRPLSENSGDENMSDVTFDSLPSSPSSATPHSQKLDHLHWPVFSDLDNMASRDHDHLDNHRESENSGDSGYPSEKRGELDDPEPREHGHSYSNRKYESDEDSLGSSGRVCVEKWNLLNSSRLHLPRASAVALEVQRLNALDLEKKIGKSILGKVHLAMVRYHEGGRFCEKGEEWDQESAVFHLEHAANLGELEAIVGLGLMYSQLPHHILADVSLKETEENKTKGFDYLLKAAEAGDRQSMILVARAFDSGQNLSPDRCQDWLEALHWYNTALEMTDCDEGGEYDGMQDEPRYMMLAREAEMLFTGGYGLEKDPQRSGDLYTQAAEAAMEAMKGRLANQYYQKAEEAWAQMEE
The assay can be described thus: Residual activity of EEF2K at 10 uM by microplate scintillation counting.

Assay [3] addresses CDC42BPA protein (Homo sapiens) (UniProt B9EGA7). The assay can be described thus: Residual activity of CDC42BPA at 10 uM by microplate scintillation counting.
In assay [4] the target is RAC-gamma serine/threonine-protein kinase (Homo sapiens) (UniProt Q9Y243). The experiment in a line: Residual activity of AKT3 at 10 uM by microplate scintillation counting.
In assay [5] the test system is Epidermal growth factor receptor (Homo sapiens), P00533 [L858R,T790M]. The assay can be described thus: Residual activity of EGFR T790M/L858R mutant at 0.1 uM by microplate scintillation counting.
Assay [6] deals with T3, Serine/threonine-protein kinase Sgk2 (Homo sapiens) (UniProt Q9HBY8).
T3 sequence (whole entry): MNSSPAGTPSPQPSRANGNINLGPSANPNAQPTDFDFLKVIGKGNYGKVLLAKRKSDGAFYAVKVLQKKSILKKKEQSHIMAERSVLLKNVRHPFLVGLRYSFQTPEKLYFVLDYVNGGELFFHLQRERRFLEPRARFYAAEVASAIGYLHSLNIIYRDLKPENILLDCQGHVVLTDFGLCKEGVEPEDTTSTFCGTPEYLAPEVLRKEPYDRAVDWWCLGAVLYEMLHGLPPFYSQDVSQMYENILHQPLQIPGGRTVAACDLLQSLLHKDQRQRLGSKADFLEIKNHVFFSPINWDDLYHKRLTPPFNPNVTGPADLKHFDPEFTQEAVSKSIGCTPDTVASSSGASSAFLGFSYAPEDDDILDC
The experiment in a line: Residual activity of SGK2 at 10 uM by microplate scintillation counting.

Assay [7] has as its target T4, Calcium/calmodulin-dependent protein kinase type IV (Homo sapiens) (UniProt Q16566).
T4 sequence (whole entry): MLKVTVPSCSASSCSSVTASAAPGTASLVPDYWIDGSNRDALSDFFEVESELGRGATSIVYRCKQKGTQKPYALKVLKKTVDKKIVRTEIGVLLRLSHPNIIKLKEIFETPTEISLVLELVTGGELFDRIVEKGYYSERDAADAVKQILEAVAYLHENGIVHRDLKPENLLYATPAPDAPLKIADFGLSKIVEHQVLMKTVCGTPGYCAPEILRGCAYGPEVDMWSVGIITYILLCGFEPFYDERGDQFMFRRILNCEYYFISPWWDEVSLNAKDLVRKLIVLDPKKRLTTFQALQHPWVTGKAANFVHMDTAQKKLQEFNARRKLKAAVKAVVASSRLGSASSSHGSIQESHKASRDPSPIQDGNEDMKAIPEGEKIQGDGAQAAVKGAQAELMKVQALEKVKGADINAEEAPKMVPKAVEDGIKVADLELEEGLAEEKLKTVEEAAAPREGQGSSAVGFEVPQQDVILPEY
The assay can be described thus: Residual activity of CAMK4 at 0.1 uM by microplate scintillation counting.

For assay [8], the target named is T3, Serine/threonine-protein kinase Sgk2 (Homo sapiens). The experiment in a line: Residual activity of SGK2 at 0.1 uM by microplate scintillation counting.
The target in a further assay is Aurora kinase B (Homo sapiens, UniProt Q96GD4). The experiment in a line: Residual activity of Aurora-B at 10 uM by microplate scintillation counting.
Assay [9] addresses Tyrosine-protein kinase SYK (Homo sapiens) (UniProt P43405). The assay can be described thus: Residual activity of SYK at 10 uM by microplate scintillation counting.

As a reminder, the residual activity is the signal under treatment as a percentage of the control signal.

Aurora kinase B, sequence (Q96GD4 whole entry): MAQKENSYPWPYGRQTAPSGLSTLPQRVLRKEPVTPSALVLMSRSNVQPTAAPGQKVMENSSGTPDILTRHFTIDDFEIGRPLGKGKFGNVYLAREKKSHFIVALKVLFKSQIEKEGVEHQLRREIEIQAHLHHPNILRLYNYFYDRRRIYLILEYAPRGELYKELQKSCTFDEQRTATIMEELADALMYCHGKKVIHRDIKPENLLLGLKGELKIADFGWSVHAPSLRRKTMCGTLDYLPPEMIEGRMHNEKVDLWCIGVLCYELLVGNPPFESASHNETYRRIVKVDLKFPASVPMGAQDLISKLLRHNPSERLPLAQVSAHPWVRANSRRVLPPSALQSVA
CDC42BPA protein (Homo sapiens), sequence (B9EGA7 as listed by the source): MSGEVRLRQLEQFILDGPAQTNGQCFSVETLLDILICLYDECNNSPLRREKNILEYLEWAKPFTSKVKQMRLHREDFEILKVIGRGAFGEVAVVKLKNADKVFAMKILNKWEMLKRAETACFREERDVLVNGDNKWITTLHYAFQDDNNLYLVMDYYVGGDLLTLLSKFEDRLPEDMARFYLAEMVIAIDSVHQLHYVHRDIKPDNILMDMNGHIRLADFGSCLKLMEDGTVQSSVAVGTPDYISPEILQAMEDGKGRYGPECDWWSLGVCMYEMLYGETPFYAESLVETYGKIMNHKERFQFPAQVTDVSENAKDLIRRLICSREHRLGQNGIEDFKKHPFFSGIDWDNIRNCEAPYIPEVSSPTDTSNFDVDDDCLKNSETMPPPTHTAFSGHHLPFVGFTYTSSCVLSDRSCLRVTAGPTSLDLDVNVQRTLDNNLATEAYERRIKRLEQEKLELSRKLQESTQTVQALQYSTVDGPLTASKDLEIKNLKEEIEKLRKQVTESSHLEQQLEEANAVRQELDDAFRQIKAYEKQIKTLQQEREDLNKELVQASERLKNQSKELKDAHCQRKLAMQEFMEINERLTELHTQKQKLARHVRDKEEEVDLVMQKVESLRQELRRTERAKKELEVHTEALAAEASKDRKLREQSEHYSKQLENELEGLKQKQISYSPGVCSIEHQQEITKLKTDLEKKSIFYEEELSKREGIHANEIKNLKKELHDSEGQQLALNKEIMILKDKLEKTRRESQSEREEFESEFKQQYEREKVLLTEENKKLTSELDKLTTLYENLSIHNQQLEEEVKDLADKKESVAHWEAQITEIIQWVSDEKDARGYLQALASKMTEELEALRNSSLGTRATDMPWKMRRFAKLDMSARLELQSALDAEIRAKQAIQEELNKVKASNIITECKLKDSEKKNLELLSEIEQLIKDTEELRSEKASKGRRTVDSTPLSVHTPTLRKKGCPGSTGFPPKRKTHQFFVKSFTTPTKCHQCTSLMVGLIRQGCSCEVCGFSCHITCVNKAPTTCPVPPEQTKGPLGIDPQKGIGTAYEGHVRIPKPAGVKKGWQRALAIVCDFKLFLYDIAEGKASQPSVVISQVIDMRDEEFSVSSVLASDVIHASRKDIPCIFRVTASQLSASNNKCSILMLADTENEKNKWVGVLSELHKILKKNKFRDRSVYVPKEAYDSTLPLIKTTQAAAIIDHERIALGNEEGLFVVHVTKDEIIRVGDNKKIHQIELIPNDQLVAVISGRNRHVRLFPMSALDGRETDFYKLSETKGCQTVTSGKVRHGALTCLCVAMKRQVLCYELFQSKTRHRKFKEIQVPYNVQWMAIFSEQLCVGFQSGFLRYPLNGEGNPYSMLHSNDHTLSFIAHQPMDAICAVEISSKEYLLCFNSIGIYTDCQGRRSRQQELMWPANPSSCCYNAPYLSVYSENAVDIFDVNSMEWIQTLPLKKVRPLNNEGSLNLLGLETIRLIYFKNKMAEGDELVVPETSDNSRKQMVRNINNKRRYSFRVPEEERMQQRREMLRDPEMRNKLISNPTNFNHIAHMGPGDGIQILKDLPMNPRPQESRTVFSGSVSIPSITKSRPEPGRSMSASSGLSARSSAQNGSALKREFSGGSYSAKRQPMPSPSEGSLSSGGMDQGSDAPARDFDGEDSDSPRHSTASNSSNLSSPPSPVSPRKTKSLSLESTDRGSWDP
RAC-gamma serine/threonine-protein kinase (Homo sapiens), sequence (Q9Y243 whole entry): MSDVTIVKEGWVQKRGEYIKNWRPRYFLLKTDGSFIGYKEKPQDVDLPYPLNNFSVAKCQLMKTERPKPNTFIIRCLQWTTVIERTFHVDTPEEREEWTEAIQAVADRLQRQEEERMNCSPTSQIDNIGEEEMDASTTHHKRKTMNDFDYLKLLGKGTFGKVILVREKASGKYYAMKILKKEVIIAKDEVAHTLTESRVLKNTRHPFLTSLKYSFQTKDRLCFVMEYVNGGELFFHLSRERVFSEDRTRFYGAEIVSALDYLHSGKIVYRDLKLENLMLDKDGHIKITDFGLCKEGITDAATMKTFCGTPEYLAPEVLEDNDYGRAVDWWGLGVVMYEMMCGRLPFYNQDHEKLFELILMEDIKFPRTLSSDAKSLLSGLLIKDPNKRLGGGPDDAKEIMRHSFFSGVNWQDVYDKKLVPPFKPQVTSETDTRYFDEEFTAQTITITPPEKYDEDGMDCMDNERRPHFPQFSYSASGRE

Regarding `COc1cc2c(Oc3ccc(-c4nc5ccccc5s4)cc3)ncnc2cc1OCCCN1CCCC1`, the residual activity in assay [1] was 102%; in assay [2] it was 104%; in assay [3], 79%; in assay [4], 79%; in [5] it was 98%; in assay [6] it was 88%. Moreover, the residual activity in assay [7] turned out to be 102%; in assay [8] it was 94%; on Aurora kinase B, 3%; in [9], 162%.

Take `COc1cc2c(Oc3ccc(-c4nc5ccccc5s4)cc3F)ncnc2cc1OCCCN1CCN(C)CC1`: the residual activity in [1] came to 106%; in assay [2] it was 120%; in assay [3], 51%; in [4], 113%; in assay [5], 101%; in assay [6] it was 111%. Further, the residual activity in assay [7] was found to be 97%; in assay [8], 95%; at Aurora kinase B, 3%; in [9], 63%.

With `COc1cc2c(Oc3ccc(-c4nc5ccccc5s4)cc3)ncnc2cc1OCCCN1CCN(C)CC1`, the residual activity amounted to 112% in assay [1]; 91% in [2]; 61% in assay [3]; 112% in [4]; 100% in assay [5]; 101% in assay [6]. Moreover, the residual activity in assay [7] came out at 96%; in assay [8], 93%; on Aurora kinase B, 5%; in assay [9], 146%.
